The values below are quoted from earlier work in patent US8008021B2, “N-terminal truncation of cardiac troponin subunits and their roles in cardiovascular disease” (Evanston Northwestern Healthcare, priority 2006, dated 2011).

This series deals with T1, μ-calpain (Homo sapiens, UniProt P07384).
T1 sequence (P07384 1-714): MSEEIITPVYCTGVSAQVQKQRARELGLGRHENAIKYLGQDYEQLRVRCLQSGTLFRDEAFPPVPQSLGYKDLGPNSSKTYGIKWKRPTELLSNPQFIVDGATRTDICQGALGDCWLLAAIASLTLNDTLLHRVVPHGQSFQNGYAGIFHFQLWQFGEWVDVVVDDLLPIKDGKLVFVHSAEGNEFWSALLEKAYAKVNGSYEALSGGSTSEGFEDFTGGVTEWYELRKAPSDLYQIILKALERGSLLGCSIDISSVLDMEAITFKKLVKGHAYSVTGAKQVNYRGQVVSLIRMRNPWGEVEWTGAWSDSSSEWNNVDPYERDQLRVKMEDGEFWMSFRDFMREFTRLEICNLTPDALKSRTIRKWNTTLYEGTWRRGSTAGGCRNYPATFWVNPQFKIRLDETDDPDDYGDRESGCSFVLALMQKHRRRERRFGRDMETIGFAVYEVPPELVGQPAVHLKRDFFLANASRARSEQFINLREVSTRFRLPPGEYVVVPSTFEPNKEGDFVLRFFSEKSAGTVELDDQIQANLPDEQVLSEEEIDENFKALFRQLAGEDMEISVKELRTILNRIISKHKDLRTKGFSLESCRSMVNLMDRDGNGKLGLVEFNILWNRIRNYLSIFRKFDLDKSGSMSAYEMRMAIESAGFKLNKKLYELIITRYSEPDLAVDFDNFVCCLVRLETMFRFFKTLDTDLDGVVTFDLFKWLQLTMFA
T1 sequence (P04632 1-268 partner): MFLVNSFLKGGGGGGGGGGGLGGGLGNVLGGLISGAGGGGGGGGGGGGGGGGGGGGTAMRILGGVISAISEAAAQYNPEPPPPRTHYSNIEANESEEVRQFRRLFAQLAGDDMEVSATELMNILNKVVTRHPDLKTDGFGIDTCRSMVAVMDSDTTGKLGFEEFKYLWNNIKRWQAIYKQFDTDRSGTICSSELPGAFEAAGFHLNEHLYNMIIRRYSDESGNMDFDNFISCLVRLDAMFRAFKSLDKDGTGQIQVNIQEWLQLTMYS
The settings on record: reference 43, cited from earlier work; for Ki: read-out: apparent inhibition constant Ki against μ-calpain.

As to `O=C(O)/C(S)=C/c1c[nH]c2ccc(F)cc12` [PD151746], the “selectivity for μ-calpain over m-calpain” value was 20 fold and the Ki was 260 ± 30 nM.
With `O=C(O)/C(S)=C/c1ccc(I)cc1` [PD150606], the Ki was 210 ± 10 nM.
